Reference: patent publication US20170326155A1, “NOVEL PHARM[…] FOR NEUROMUSCULAR CONTRACTURES” (Children's Hospital Medical Center, priority 2016, published 2017)

Assays:
[1] = tested on: adult skeletal muscle regeneration; settings: not tested in pediatric neuromuscular conditions; cited from earlier work
[2] = tested on: shoulder contractures following NBPI; assay: Mouse model of neonatal brachial plexus injury (NBPI), muscle contracture formation; type: in vivo, mice; settings: for severity of shoulder contractures: single systemic dose following NBPI, 4 weeks post NBPI, compared to controls, preliminary experiment
From the text: Experimental Model: Unilateral brachial plexus injuries are surgically created at 5 days of age in mice. The immediate paralysis mimics that of the human condition, and can be modulated by different surgical techniques of nerve injury. Within 4 weeks after NBPI, muscle contractures form at the shoulder and elbow, replicating the human contractures. (Not shown.) Muscles can be harvested for analysis of growth and cellular behavior. The use of unilateral injuries preserves the contralateral limb as a control, minimizing the number of mice required.

| Structure (SMILES) | adult skeletal muscle regeneration [1] | contracture severity following NBPI ([2]; neonatal treatment, preliminary) | severity of shoulder contractures [2] | severity of shoulder contractures ([2]; listed as nandrolone) |
| --- | --- | --- | --- | --- |
| CCCCc1nc(Cl)c(CO)n1Cc1ccc(-c2ccccc2-c2nn[nH]n2)cc1 [losartan] | improve adult skeletal muscle regeneration |  |  |  |
| C[C@]12CC[C@H]3[C@@H](CCC4=CC(=O)CC[C@@H]43)[C@@H]1CC[C@@H]2O [Nandrolone] |  | lessened contracture severity | lessened the severity of shoulder contractures | decreased the severity of the shoulder contracture |
